Measured values as given in patent publication US12630600B2 (MEDIMMUNE LIMITED, priority 2022, dated 2026).
Starred links: 1 amine or outer side, 2 acyl side, 3 side chain; linkers in the order of their positions; H or OH if unused. Non-standard residues stand in square brackets, D forms with d. Residues, ends and D or L forms follow the SMILES beside them. Groups on a side chain read outwards from the residue. *: point of attachment. C18 diacid = O=C(O)CCCCCCCCCCCCCCCCC(=O)*; γGlu = O=C(O)[C@H](CCC(=O)[*:2])N[*:1]; αMeF = C[C@](N)(Cc1ccccc1)C(=O)O; AEEA = NCCOCCOCC(=O)O; Aib = CC(C)(N)C(=O)O

Target: T1, human GLP-1 receptor (hGLP-1R) (Homo sapiens, UniProt P43220)
T1 construct: expressed in transfected cells; host or cells: CHO
T1 sequence (P43220 24-463): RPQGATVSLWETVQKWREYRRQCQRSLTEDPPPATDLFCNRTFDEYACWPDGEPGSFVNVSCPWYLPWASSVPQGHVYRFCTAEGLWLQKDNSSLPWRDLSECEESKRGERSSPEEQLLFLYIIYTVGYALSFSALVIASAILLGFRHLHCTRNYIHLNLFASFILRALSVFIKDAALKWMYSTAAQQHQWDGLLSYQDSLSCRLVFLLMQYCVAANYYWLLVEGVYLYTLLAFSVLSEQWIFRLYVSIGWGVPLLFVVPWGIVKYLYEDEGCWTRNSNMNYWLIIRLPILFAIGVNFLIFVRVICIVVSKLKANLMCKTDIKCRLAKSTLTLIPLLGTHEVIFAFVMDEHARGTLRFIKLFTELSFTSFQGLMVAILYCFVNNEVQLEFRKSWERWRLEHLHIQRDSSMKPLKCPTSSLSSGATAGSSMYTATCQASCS
Experiment: cAMP production (HTRF) in CHO cells expressing human GLP-1 receptor
Assay type: cell-based
Details: % GLP-1R activity relative to GLP-1 / % GlucR activity relative to glucagon
Protocol: Cells were re-suspended in assay buffer at a batch-dependent optimized concentration (typically hGLP-1R cells at 1×10^5 cells/mL, hGCGR cells at 2×10^5 cells/mL).
Cells were added to the assay plate using a multidrop dispenser and incubated at room temperature for 30 minutes before measuring the cAMP level using a cAMP dynamic 2 homogeneous time resolved Fluorescence (HTRF) kit (Cisbio Bioassays #62AM4PEJ) following the two-step protocol as per manufacturer's recommendations. In brief, anti-cAMP cryptate (donor fluorophore) and cAMP-d2 (acceptor fluorophore) were made up separately by diluting each 1 in 20 in conjugate and lysis buffer provided in the kit. Anti-cAMP cryptate was added to all wells of the assay plate, followed by cAMP-d2 added to all wells except non-specific binding (NSB) wells (to which conjugate and lysis buffer was added).
Data was transformed to % Delta F as described in the manufacturer's guidelines and analyzed by 4-parameter logistic fit to determine EC50 values.

| Compound | % Relative Potency Ratio (Table 8) | also measured |
| --- | --- | --- |
| CC[C@H](C)[C@H](NC(=O)[C@H](CO)NC(=O)[C@H](CCCCNC(=O)COCCOCCNC(=O)COCCOCCNC(=O)CC[C@H](NC(=O)CC[C@H](NC(=O)CCCCCCCCCCCCCCCCC(=O)O)C(=O)O)C(=O)O)NC(=O)[C@@H](NC(=O)[C@](C)(Cc1ccccc1)NC(=O)[C@H](CC(=O)O)NC(=O)[C@H](CCC(N)=O)NC(=O)[C@H](C)NC(=O)[C@H](C)NC(=O)[C@H](CCCNC(=N)N)NC(=O)[C@H](CO)NC(=O)[C@H](CC(=O)O)NC(=O)[C@H](CC(C)C)NC(=O)[C@](C)(Cc1ccccc1)NC(=O)[C@H](CCCCN)NC(=O)[C@H](CO)NC(=O)[C@@H](NC(=O)[C@H](CC(=O)O)NC(=O)[C@H](CO)NC(=O)[C@@H](NC(=O)[C@](C)(Cc1ccccc1)NC(=O)[C@H](CO)NC(=O)CNC(=O)[C@H](Cc1c[nH]cn1)NC(=O)C(C)(C)NC(=O)[C@@H](N)Cc1c[nH]cn1)[C@@H](C)O)C(C)C)C(C)C)C(=O)N[C@@H](C)C(=O)N[C@@H](CC(N)=O)C(=O)N[C@H](C(N)=O)[C@@H](C)O [Peptide 378] (H-H[Aib]HGS[αMeF]TSDVSK[αMeF]LDSRAAQD[αMeF]VK([AEEA-AEEA-γGlu-γGlu-C18 diacid])SIANT-NH2; N-terminus assumed) | 2.0 |  |
| HSQGS(αMePhe)TSDK((PEG)2-(PEG)2-γE-γE-Palmitoyl)10SK(Dip)LDS(ß-dimethylArg)AAQD(αMePhe)VE(Aib)LANT-amide [Peptide 394] |  | % Relative Potency Ratio (Table 9): 7.3 |
| CC[C@H](C)[C@H](NC(=O)[C@H](Cc1c[nH]c2ccccc12)NC(=O)[C@H](CCCCNC(=O)COCCOCCNC(=O)COCCOCCNC(=O)CC[C@H](NC(=O)CCCCCCCCCCCCCCCCC(=O)O)C(=O)O)NC(=O)[C@@H](NC(=O)[C@H](Cc1ccccc1)NC(=O)[C@H](CC(=O)O)NC(=O)[C@H](CCC(N)=O)NC(=O)[C@H](C)NC(=O)C(C)(C)NC(=O)[C@H](CCCNC(=N)N)NC(=O)[C@H](CO)NC(=O)[C@H](CC(=O)O)NC(=O)[C@H](CC(C)C)NC(=O)[C@](C)(Cc1ccccc1)NC(=O)[C@H](CCCCN)NC(=O)[C@H](CO)NC(=O)[C@@H](NC(=O)[C@H](CC(=O)O)NC(=O)[C@H](CO)NC(=O)[C@@H](NC(=O)[C@](C)(Cc1ccccc1)NC(=O)[C@H](CO)NC(=O)CNC(=O)[C@H](Cc1c[nH]cn1)NC(=O)C(C)(C)NC(=O)[C@@H](N)Cc1c[nH]cn1)[C@@H](C)O)C(C)C)C(C)C)C(=O)N[C@@H](C)C(=O)N[C@@H](CC(N)=O)C(=O)N[C@H](C(N)=O)[C@@H](C)O [Peptide 365, H(Aib)HGS(αMePhe)TSDVSK(αMePhe)LDSR(Aib)AQDFVK(O2Oc-O2Oc-γE-C18diacid)24WIANT-amide] (H-H[Aib]HGS[αMeF]TSDVSK[αMeF]LDSR[Aib]AQDFVK([AEEA-AEEA-γGlu-C18 diacid])WIANT-NH2; N-terminus assumed) | 0.3 |  |
| CC[C@H](C)[C@H](NC(=O)[C@H](Cc1c[nH]c2ccccc12)NC(=O)[C@H](CCCCNC(=O)COCCOCCNC(=O)COCCOCCNC(=O)CC[C@H](NC(=O)CC[C@H](NC(=O)CCCCCCCCCCCCCCCCC(=O)O)C(=O)O)C(=O)O)NC(=O)[C@@H](NC(=O)[C@H](Cc1ccccc1)NC(=O)[C@H](CC(=O)O)NC(=O)[C@H](CCC(N)=O)NC(=O)[C@H](C)NC(=O)[C@H](C)NC(=O)[C@H](CCCNC(=N)N)NC(=O)[C@H](CO)NC(=O)[C@H](CC(=O)O)NC(=O)[C@H](CC(C)C)NC(=O)[C@](C)(Cc1ccccc1)NC(=O)[C@H](CCCCN)NC(=O)[C@H](CO)NC(=O)[C@@H](NC(=O)[C@H](CC(=O)O)NC(=O)[C@H](CO)NC(=O)[C@@H](NC(=O)[C@](C)(Cc1ccccc1)NC(=O)[C@H](CO)NC(=O)CNC(=O)[C@H](Cc1c[nH]cn1)NC(=O)C(C)(C)NC(=O)[C@@H](N)Cc1c[nH]cn1)[C@@H](C)O)C(C)C)C(C)C)C(=O)N[C@@H](C)C(=O)N[C@@H](CC(N)=O)C(=O)N[C@H](C(=O)NCC(N)=O)[C@@H](C)O [Peptide 363] (H-H[Aib]HGS[αMeF]TSDVSK[αMeF]LDSRAAQDFVK([AEEA-AEEA-γGlu-γGlu-C18 diacid])WIANTG-NH2; N-terminus assumed) | 5.1 |  |
| CC[C@H](C)[C@H](NC(=O)[C@H](CO)NC(=O)[C@H](CCCCNC(=O)COCCOCCNC(=O)COCCOCCNC(=O)CC[C@H](NC(=O)CCCCCCCCCCCCCCCCC(=O)O)C(=O)O)NC(=O)[C@@H](NC(=O)[C@](C)(Cc1ccccc1)NC(=O)[C@H](CC(=O)O)NC(=O)[C@H](CCC(N)=O)NC(=O)[C@H](C)NC(=O)[C@H](C)NC(=O)[C@H](CCCNC(=N)N)NC(=O)[C@H](CO)NC(=O)[C@H](CC(=O)O)NC(=O)[C@H](CC(C)C)NC(=O)[C@](C)(Cc1ccccc1)NC(=O)[C@H](CCCCN)NC(=O)[C@H](CO)NC(=O)[C@@H](NC(=O)[C@H](CC(=O)O)NC(=O)[C@H](CO)NC(=O)[C@@H](NC(=O)[C@](C)(Cc1ccccc1)NC(=O)[C@H](CO)NC(=O)CNC(=O)[C@H](Cc1c[nH]cn1)NC(=O)C(C)(C)NC(=O)[C@@H](N)Cc1c[nH]cn1)[C@@H](C)O)C(C)C)C(C)C)C(=O)N[C@@H](C)C(=O)N[C@@H](CC(N)=O)C(=O)N[C@H](C(N)=O)[C@@H](C)O [Peptide 379] (H-H[Aib]HGS[αMeF]TSDVSK[αMeF]LDSRAAQD[αMeF]VK([AEEA-AEEA-γGlu-C18 diacid])SIANT-NH2) | 2.4 |  |
| HSQGS(αMePhe)TSDVSKK((PEG)2-(PEG)2-γE-VE-Palmitoyl)13LDS(B-dimethylArg)AAQD(aMePhe)VE(Aib)LANT-amide [Peptide 400] |  | % Relative Potency Ratio (Table 10): 16.7 |
| CC[C@H](C)[C@H](NC(=O)C(C)(C)NC(=O)[C@H](CCCCNC(=O)COCCOCCNC(=O)COCCOCCNC(=O)CC[C@H](NC(=O)CC[C@H](NC(=O)CCCCCCCCCCCCCCCCC(=O)O)C(=O)O)C(=O)O)NC(=O)[C@@H](NC(=O)[C@](C)(Cc1ccccc1)NC(=O)[C@H](CC(=O)O)NC(=O)[C@H](CCC(N)=O)NC(=O)[C@H](C)NC(=O)[C@H](C)NC(=O)[C@H](CCCNC(=N)N)NC(=O)[C@H](CO)NC(=O)[C@H](CC(=O)O)NC(=O)[C@H](CC(C)C)NC(=O)[C@](C)(Cc1ccccc1)NC(=O)[C@H](CCCCN)NC(=O)[C@H](CO)NC(=O)[C@@H](NC(=O)[C@H](CC(=O)O)NC(=O)[C@H](CO)NC(=O)[C@@H](NC(=O)[C@](C)(Cc1ccccc1)NC(=O)[C@H](CO)NC(=O)CNC(=O)[C@H](Cc1c[nH]cn1)NC(=O)C(C)(C)NC(=O)[C@@H](N)Cc1c[nH]cn1)[C@@H](C)O)C(C)C)C(C)C)C(=O)N[C@@H](C)C(=O)N[C@@H](CC(N)=O)C(=O)N[C@H](C(=O)NCC(=O)NCC(N)=O)[C@@H](C)O [Peptide 373] (H-H[Aib]HGS[αMeF]TSDVSK[αMeF]LDSRAAQD[αMeF]VK([AEEA-AEEA-γGlu-γGlu-C18 diacid])[Aib]IANTGG-NH2; N-terminus assumed) | 7.2 |  |
